Experimental data taken from paper PMC10708475, “HPLC-DAD-MS Characterization, Antioxidant Activity, α-amylase Inhibition, Molecular Docking, and ADMET of Flavonoids from Fenugreek Seeds” (Molecules, 2023).

Tests used:
[1] = ABTS+ scavenging activity; conditions: 10 min, 734 nm
Procedure: The ABTS•+ assay (2, 2′-azino-bis (3-ethylbenzthiazoline-6-sulfonic acid)) was carried out according to the method with some modifications. The ABTS+ reagent was prepared as follows: 19.2 mg of ABTS (7 mM) in 5 mL distilled water was mixed with 3.3 mg of Potassium persulfate K2S2O8 (2.45 mM) in 5 mL distilled water, and the mixture was incubated for 16 h in the dark before use. We have added 160 µL of ABTS+ reagent to 40 μL of extract solutions. After 10 min of incubation, the absorbance was read at 734 nm using a microplate reader of type PerkinElmer (Enspire). BHA and BHT were used as references. The total antioxidant activity of the extracts was calculated as follows:(4) ABTS^+scavenging effect (%)=AControl−ASample/AControl×100
(§1) The results of the tests carried out are expressed as an average ± SD of analyses in three tests. The values of IC50 (50% inhibition concentration) and A0.5 (the concentration indicating 0.50 absorbance) are calculated using the linear regression method from the two curves: [% inhibition = f (concentration)] for IC50 and [Absorbance = f (concentration)] for A0.5. All the antioxidant and enzymatic tests were carried out at more than four concentration values. The one-way analysis of variance ANOVA was used to detect significant differences (p < 0.05).

[2] = DPPH radical scavenging assay; conditions: 30 min, 517 nm
Procedure: The ability of radical scavenging was determined according to [118], using the radical DPPH• (2,2-diphenyl-1-picrylhydrazyl). 160 µL of DPPH solution (0.15 mM) was added to 40 µL of the diluted extracts in methanol and incubated in the dark. After 30 min of incubation, the absorbances were measured at 517 nm by a microplate reader of type PerkinElmer (Enspire) against a blank. BHA, BHT, and α-tocopherol were used as reference antioxidants. DPPH inhibition percentage was calculated using the following equation:(3) Inhibition(%)=A0−As/A0×100 where A0 is the absorbance of the control (without the sample) and As is the absorbance of the tested samples. The antioxidant activity of the extracts and standards was expressed as IC50 (the concentration of the tested samples that inhibits 50% of DPPH radicals).
as §1

[3] = Ferric-reducing antioxidant power (FRAP) assay; conditions: concentration indicating 0.50 absorbance, 700 nm; maximum tested 200 µg/mL
Procedure: The ferric-reducing antioxidant power (FRAP) assay was carried out according to [119]. The reaction mixture contained 10 μL of the extracts, 40 µL phosphate buffer (pH 6.6), and 50 μL potassium ferricyanide K3[Fe (CN)6] (1%), was incubated at 50 °C for 20 min, then 50 µL of trichloroacetic acid (TCA) (10%) and 40 µL of distilled water and 10 µL of ferric chloride FeCl3 (0.1%) were added. Then, the absorbance was measured at 700 nm using a microplate reader of type PerkinElmer (Enspire) against a blank. Tannic acid, α-tocopherol, and ascorbic acid were used as references.
The results of the tests carried out are expressed as an average ± SD of analyses in three tests. […] The one-way analysis of variance ANOVA was used to detect significant differences (p < 0.05).

Compound | ABTS Inhibition IC50 [1] [mg/L] | DPPH Inhibition IC50 [2] [mg/L] | FRAP A0.5 [3] [µg/mL]
COc1ccc(O)c(C(C)(C)C)c1 [BHA, Butylated hydroxyanisole] | 1.81 ± 0.10 | 6.14 ± 0.41 | –
Cc1cc(C(C)(C)C)c(O)c(C(C)(C)C)c1 [BHT, hydroxytoluene] | 1.29 ± 0.30 | 12.99 ± 0.41 | –
Tannic acid | – | – | 5.39 ± 0.91
O=C1O[C@H]([C@@H](O)CO)C(O)=C1O [Ascorbic acid] | – | – | 6.77 ± 1.15
